Measurements from US10280170B2, “Substituted 4,5,6,7-tetrahydro-pyrazolo[1,5-a]pyrazine derivatives and 5,6,7,8-tetrahydro-4H-pyrazolo[1,5-a][1,4]diazepine derivatives as Ros1 inhibitors” (Janssen Pharmaceutica NV, priority 2014, dated 2019).
Where two headings read alike, the source gives them in different places.

How the values were obtained:
[1] = biological target: T1, Ba/F3 cells containing Ros1 wild-type protein (Homo sapiens, UniProt P08922, cells depend on it, form not given); experiment: Ba/F3-Ros1 cell proliferation assay, wild-type Ros1; format: cell-based, murine; conditions: without IL-3
T1 construct: The background only speaks of 'a number of different unrelated proteins' and names SLC34A2-ROS1 for HCC78 cells
T1 sequence (P08922 whole entry, stated change not applied): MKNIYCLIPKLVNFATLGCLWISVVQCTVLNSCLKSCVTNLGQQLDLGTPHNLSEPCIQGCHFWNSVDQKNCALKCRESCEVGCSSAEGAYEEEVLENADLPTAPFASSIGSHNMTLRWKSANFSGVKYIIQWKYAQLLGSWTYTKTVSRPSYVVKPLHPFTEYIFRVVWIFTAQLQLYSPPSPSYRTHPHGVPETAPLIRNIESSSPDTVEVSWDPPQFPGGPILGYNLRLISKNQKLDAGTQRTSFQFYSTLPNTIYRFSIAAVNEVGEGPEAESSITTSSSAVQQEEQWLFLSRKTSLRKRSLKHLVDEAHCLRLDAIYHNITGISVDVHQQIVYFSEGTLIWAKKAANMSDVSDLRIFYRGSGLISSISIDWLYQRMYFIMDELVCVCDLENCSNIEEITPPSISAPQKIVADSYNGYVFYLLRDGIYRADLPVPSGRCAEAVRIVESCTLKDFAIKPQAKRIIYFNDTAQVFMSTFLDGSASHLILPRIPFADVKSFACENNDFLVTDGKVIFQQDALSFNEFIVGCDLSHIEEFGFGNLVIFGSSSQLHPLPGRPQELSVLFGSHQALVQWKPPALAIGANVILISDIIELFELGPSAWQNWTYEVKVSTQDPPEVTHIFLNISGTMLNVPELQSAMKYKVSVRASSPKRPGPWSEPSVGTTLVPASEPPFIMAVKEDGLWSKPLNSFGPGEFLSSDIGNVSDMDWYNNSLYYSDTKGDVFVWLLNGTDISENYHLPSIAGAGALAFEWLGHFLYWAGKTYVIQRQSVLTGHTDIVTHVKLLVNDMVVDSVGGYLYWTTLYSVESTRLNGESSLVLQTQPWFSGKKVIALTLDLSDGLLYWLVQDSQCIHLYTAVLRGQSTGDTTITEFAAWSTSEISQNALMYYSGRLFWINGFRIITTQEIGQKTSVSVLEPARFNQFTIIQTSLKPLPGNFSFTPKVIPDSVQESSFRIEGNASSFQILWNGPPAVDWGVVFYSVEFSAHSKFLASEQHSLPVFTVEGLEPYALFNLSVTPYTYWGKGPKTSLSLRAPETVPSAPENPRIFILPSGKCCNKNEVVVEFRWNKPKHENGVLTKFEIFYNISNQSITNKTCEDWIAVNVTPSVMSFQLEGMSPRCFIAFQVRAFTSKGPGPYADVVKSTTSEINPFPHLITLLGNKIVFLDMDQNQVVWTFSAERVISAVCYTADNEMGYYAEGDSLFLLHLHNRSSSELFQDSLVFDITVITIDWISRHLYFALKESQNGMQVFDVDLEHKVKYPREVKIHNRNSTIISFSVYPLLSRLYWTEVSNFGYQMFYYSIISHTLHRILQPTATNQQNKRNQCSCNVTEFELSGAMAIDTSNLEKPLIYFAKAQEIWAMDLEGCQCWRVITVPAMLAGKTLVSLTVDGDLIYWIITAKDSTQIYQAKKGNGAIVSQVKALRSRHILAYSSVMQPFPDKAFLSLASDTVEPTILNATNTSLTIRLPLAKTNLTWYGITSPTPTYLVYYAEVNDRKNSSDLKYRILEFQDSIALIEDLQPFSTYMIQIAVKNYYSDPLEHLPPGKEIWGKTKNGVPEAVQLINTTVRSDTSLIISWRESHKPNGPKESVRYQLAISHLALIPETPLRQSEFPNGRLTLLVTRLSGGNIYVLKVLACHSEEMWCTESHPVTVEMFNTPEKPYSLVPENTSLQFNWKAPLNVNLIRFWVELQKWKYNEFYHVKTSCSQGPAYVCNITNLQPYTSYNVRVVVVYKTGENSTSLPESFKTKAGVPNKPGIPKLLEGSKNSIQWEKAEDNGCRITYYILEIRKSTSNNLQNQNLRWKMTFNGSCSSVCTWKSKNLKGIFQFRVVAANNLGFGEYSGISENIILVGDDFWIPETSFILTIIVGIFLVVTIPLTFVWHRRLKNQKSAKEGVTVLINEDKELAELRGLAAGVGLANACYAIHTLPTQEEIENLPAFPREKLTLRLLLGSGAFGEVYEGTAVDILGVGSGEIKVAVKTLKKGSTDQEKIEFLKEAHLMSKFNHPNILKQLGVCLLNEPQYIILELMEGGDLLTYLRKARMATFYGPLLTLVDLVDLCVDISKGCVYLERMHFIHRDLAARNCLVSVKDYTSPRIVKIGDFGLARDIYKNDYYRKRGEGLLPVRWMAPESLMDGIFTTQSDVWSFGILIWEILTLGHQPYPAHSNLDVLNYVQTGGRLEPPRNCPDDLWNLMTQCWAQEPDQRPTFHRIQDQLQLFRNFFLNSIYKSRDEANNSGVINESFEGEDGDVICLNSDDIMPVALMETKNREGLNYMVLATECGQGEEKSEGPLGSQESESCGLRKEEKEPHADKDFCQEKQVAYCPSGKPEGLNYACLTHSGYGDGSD
Protocol: (§1) Ba/F3-Ros1 Cell Proliferation Assay
(§2) This assay was carried out with Ba/F3 cells containing three different versions of Ros1: the wild-type protein, protein with a mutation at the gatekeeper residue (L2026M), and protein with a mutation identified in a tumor from a patient that became resistant to crizotinib (Xalkori®) treatment (G2032R). Compounds were solubilized in 100% DMSO (dimethyl sulfoxide) and sprayed into polystyrene, tissue culture treated 384-well plates. A 50 μl volume of cell culture medium (phenol red free RPMI-1640, 10% FBS (fetal bovine serum), 2 mM L-Glutamine) containing 20000 Ba/F3-Ros1 cells was added to each well and the plates were placed in an incubator at 37° C. and 5% CO2. After 24 hours, 10 μl of Alamar Blue solution (0.5 mM K3Fe(CN)6, 0.5 mM K4Fe(CN)6, 0.15 mM Resazurin and 100 mM Phosphate Buffer) was added to the wells, incubated for 4 hours at 37° C. and 5% CO2 before RFU's (Relative Fluorescence Units) (ex. 540 nm., em. 590 nm.) were measured in a fluorescence plate reader.

[2] = test system: Ba/F3 cells containing Ros1 wild-type protein + IL-3; experiment: Ba/F3-Ros1 cell proliferation counter-screen, wild-type protein in the presence of 10 ng/ml murine IL-3; format: cell-based; conditions: Mus musculus, BaF3, 24 h, read-out: BaF3-ROS1 + IL3 pIC50 (converted)
Protocol: as §2
As a counter-screen the same experiment was performed for the wild-type protein in the presence of 10 ng/ml murine IL-3.

[3] = biological target: Ba/F3 cells containing Ros1 with a mutation at the gatekeeper residue (L2026M) (Homo sapiens, UniProt P08922, L2026M, cells depend on it, form not given); experiment: Ba/F3-Ros1 cell proliferation assay, L2026M gatekeeper mutant; format: cell-based, murine; conditions: without IL-3
Chain of Ba/F3 cells containing Ros1 with a mutation at the gatekeeper residue (L2026M) (P08922 whole entry L2026M, form open): as the sequence (P08922 whole entry, stated change not applied) above, with L2026M counted along it
Protocol: as §1, §2

[4] = test system: HCC78 non-small cell lung cancer cells; experiment: HCC78 cell proliferation assay; format: cell-based; conditions: for EC50: Homo sapiens, HCC78, 96 h, read-out: HCC-78 PROL pEC50 (converted)
Protocol: HCC78 Cell Proliferation Assay
Approximately 1000 HCC78 non-small cell lung cancer cells in 180 μl of cell culture medium (RPMI-1640, 10% FBS, 2 mM L-Glutamine, 10 mM Hepes, 1 mM sodium pyruvate, 4.5 g/L glucose, 1.5 g/L sodium bicarbonate, 25 μg/ml Gentamycin) were seeded in each well of a 96-well polystyrene, tissue-culture treated plate and incubated at 37° C. and 5% CO2. After 24 hours, compounds were diluted in cell culture medium from which 20 μl was added to the wells containing cells and incubated for 4 days at 37° C. and 5% CO2. A 5 mg/ml solution of the tetrazolium dye MTT was prepared in PBS (phosphate-buffered saline) and 25 μl was added to each well. After 2 hours the medium was removed and replaced by 125 μL of 4/1 DMSO/glycine buffer (0.1M glycine, 0.1M NaCl, pH 10.5) before absorbance was determined at 538 nm.

Ros1 enzyme = biological target: T2, Ros1 enzyme (Homo sapiens, UniProt P08922); experiment: Ros1 enzymatic assay; format: biochemical; conditions: Ros1 enzymatic assay; read-out: ROS1 pIC50 (converted)
T2 construct: 0.5 μg/ml Ros1 enzyme
T2 sequence (P08922 28-2347): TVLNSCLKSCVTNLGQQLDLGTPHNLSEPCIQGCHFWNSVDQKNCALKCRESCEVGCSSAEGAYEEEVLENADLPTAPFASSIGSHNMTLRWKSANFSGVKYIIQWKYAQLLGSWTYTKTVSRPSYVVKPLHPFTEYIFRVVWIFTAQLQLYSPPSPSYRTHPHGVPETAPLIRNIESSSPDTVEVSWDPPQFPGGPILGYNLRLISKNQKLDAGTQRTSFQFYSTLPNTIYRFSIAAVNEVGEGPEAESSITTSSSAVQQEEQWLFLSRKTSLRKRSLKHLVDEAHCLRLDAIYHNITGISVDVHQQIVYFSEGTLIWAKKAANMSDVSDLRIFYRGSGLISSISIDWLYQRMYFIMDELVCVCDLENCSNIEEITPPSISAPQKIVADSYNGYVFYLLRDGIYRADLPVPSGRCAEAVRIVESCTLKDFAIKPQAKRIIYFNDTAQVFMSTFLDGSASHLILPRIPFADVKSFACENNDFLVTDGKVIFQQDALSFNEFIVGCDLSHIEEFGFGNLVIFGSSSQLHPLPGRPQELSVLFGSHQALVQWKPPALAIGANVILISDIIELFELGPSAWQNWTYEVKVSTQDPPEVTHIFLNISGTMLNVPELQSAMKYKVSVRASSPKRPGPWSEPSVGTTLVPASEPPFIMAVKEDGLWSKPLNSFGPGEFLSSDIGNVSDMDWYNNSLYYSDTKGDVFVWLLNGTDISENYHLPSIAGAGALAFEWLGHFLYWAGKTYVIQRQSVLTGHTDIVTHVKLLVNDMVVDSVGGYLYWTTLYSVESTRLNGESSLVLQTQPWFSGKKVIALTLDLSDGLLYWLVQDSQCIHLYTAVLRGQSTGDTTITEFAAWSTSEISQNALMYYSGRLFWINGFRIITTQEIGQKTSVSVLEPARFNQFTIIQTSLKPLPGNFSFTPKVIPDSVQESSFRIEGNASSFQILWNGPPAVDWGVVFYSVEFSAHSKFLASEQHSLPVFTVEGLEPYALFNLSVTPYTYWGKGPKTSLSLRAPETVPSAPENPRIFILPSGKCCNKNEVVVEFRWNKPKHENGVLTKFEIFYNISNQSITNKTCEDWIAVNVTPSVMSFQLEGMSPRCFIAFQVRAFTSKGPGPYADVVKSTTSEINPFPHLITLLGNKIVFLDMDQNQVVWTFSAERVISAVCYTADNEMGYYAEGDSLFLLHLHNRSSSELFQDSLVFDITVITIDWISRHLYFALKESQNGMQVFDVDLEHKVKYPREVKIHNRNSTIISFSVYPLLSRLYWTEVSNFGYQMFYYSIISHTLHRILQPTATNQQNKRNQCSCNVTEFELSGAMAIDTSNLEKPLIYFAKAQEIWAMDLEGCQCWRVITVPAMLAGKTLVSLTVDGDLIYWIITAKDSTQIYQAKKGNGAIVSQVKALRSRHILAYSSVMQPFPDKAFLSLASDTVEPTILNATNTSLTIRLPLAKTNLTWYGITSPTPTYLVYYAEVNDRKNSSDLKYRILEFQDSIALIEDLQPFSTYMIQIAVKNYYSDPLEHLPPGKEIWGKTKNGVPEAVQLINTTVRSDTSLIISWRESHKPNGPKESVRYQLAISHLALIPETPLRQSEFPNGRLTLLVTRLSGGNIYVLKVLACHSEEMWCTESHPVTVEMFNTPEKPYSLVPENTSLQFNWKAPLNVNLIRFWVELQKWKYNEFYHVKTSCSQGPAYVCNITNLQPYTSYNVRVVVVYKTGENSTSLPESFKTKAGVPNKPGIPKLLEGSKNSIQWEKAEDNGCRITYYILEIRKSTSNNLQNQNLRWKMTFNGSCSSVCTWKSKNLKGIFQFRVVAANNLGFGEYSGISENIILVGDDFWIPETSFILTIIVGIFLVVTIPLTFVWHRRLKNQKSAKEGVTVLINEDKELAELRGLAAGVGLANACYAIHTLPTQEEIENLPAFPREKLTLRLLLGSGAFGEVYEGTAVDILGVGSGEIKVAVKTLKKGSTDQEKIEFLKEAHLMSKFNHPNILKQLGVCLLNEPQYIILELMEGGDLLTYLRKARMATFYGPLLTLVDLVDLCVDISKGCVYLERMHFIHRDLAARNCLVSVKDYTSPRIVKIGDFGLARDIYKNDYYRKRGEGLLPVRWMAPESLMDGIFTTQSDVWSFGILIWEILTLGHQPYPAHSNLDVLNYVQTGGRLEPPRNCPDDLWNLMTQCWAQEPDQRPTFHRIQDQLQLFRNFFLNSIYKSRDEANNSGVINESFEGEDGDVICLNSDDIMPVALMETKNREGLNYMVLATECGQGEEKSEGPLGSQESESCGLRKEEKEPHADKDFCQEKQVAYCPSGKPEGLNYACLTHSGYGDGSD
Protocol: Compounds were spotted onto white 384-well Proxiplate plus plates (Perkin Elmer) to which 5 μl of enzyme mix (0.5 μg/ml Ros1 enzyme, 50 mM Tris-HCl pH7.5, 1 mM EGTA, 10 mM MgCl2, 0.01% Tween-20) and 5 μl of substrate mix (6 μg/ml IRS-Tide [American Peptide Company], 20 μM ATP, 13.33 μCi/ml ATP (adenosine 5′-triphosphate) P^33, 50 mM Tris-HCl pH7.5, 1 mM EGTA (ethylene glycol-bis(2-aminoethylether)-N,N,N′,N′-tetraacetic acid), 10 mM MgCl2, 0.01% Tween-20) were added. After incubation for 120 minutes at room temperature, 10 μl of stop reaction buffer (5 mM EDTA, 50 μM ATP, 0.1% BSA (bovine serum albumin), 0.1% Triton X-100, 50 mM Tris-HCl pH7.5, 1 mM EGTA, 10 mM MgCl2, 0.01% Tween-20) containing 2 mg/ml streptavidin coupled polystyrene imaging beads (Amersham Biosciences) was added and incubated for 15 minutes at room temperature. Plates were centrifuged for 3 minutes at 1500 rpm and signals detected in a LEADseeker imaging system (GE).

[5] = counter-screen, wild-type, 10 ng/ml murine IL-3

Row | HCC-78 PROL pEC50 ([4]; HCC78 cells, 4 days, MTT) | EC50 ([4]; HCC78 cells, 4 days, MTT) [nM] | Compound | BaF3-ROS1-IL3 pIC50 [1] | CC50 [2, 5] [nM] | Ba/F3 Ros1 L2026M (-IL-3) pIC50 [3] | IC50 (Ros1 enzyme) [nM] | CC50 [2] [nM] | EC50 [4] [nM] | melting point [°C]
1 | 6.8 |  | CC(C)c1ccc(COc2ccc(-c3c(-c4ccncc4)nn4c3C(=O)N(C(C)CO)CC4)cc2)cc1 (single isomer, unassigned) [Compound 39] | 7.3 | > 10000 | 7.0 | 79.4 |  |  | 
2 |  |  | CC(C)c1ccc(COc2cc(F)c(-c3c(-c4ccncc4)nn4c3C(=O)NCC4)cc2F)cc1 [Compound 14] | 7.8 |  | 8.2 | 6.31 | > 10000 | < 31.6 | 
3 |  |  | CC(C)c1ccc(COc2c(F)cc(-c3c(-c4ccncc4)nn4c3C(=O)NCC4)cc2F)cc1 [Compound 15] | 7.5 |  | 7.5 | 39.8 | > 10000 | 50.1 | 
4 |  |  | Cc1cc(-c2c(-c3ccncc3)nn3c2C(=O)N(CCO)CC3)ccc1OCc1ccc(C(C)C)cc1 [Compound 31] | 6.3 |  | 5.9 | 1580 | > 10000 | 6310 | 
5 |  |  | CC(C)c1ccc(COc2ccc(-c3c(-c4ccncc4)nn4c3C(=O)N(CC3CNC(=O)O3)CC4)cc2)cc1 (centres unmarked) [Compound 56] | 7.5 |  | 7.0 | 39.8 | > 10000 | 126 | 
6 |  | 1000 | CC(C)c1ccc(COc2ccc(-c3c(-c4ccncc4)nn4c3C(=O)N(CCCN)CC4)cc2)cc1 [Compound 58] | 7.3 | 6310 | 7.0 | 20 |  |  | 
7 |  | 501 | CC(C)c1ccc(COc2ccc(-c3c(-c4ccncc4)nn4c3C(=O)N(CCN)CC4)cc2)cc1 [Compound 59] | 6.4 | 5010 | ~6.1 | 63.1 |  |  | 
8 |  | 631 | CNCCN1CCn2nc(-c3ccncc3)c(-c3ccc(OCc4ccc(C(C)C)cc4)cc3)c2C1=O [Compound 60] | 6.6 | 3980 | 6.2 | 63.1 |  |  | 
9 |  |  | CC(C)c1ccc(COc2ccc(-c3c(-c4ccncc4)nn4c3C(=O)N(CCN(C)C)CC4)cc2)cc1 [Compound 61] | 6.3 |  | 5.9 |  | > 10000 | 631 | 
10 |  |  | CC(C)c1ccc(COc2ccc(-c3c(-c4ccncc4)nn4c3C(=O)N(CCNCC(F)(F)F)CC4)cc2)cc1 [Compound 62] | 7.0 |  | 6.6 | 200 | > 10000 | 501 | 
11 |  | 200 | CC(=O)OC(C)CN1CCn2nc(-c3ccncc3)c(-c3ccc(OCc4ccc(C(C)C)cc4)cc3)c2C1=O (centres unmarked) [Compound 69] | 7.4 | > 10000 | <5 | 63.1 |  |  | 
12 |  |  | CC(C)c1ccc(COc2ccc(-c3c(-c4ccncc4)nn4c3C(=O)N(C(=O)OC(C)(C)C)CC4)cc2)cc1 [Compound 70] | 6.4 | > 10000 | 6.1 | 3160 |  |  | 147
13 |  |  | CC(C)c1ccc(CC(=O)N2CC=C(c3c(-c4ccncc4)nn4c3C(=O)NCC4)CC2)cc1 [Compound 77] | 6.3 |  | 6.3 | 316 | > 10000 | 2000 | 
14 |  |  | CC(C)c1ccc(COc2ccc(-c3c(-c4ccncc4)nn4c3C(=O)N(CCO)CC4)cc2)cc1CCO [Compound 83] | 7.6 |  | 7.2 | 20 | > 10000 |  | 176
15 |  | 501 | CC(C)c1ccc(COc2ccc(-c3c(-c4ccncc4)nn4c3C(=O)NCC4)cc2)cc1CN [Compound 86] | 7.2 | > 10000 | 6.9 | 10 |  |  | 
16 |  |  | CC(C)c1ccc(COc2ccc(-c3c(-c4ccncc4)nn4c3C(=O)NCC4)cc2)cc1OCCO [Compound 89] | 7.6 |  | 7.1 | 31.6 | > 10000 | 200 | 
17 |  |  | CC(C)c1ccc(COc2ccc(-c3c(-c4ccncc4)nn4c3C(=O)N(CCO)CC4)cc2)c(F)c1F [Compound 100] | 6.9 |  | 6.3 | 200 | > 10000 |  | 172
18 |  |  | CC(C)c1ccc(COc2ccc(-c3c(-c4ccncc4)nn4c3C(=O)N(CC(O)CO)CC4)cc2)c(F)c1F (centres unmarked) [Compound 101] | 6.7 | > 10000 | 6.4 | 398 |  |  | 192
19 |  |  | CC(C)c1ccc(C(C)Oc2ccc(-c3c(-c4ccncc4)nn4c3C(=O)NCC4)cc2)cc1 (centres unmarked) [Compound 143] | 6.4 |  | 6.0 | 1000 | 5010 |  | 217
20 | <5.5 |  | CC(C)c1ccc(C(C)Oc2ccc(-c3c(-c4ccncc4)nn4c3C(=O)N(CCO)CC4)cc2)cc1 (centres unmarked) [Compound 145] | 5.8 |  | 5.1 | 3160 |  |  | 
21 |  |  | O=C1NCCn2nc(-c3ccncn3)c(-c3ccc(OCc4ccc(C5CC5)nc4)cc3)c21 [Compound 168] | 6.5 |  | 6.2 | 398 | > 10000 |  | 254
22 |  |  | O=C1c2c(-c3ccc(OCc4ccc(C5CC5)nc4)cc3)c(-c3ccncn3)nn2CCN1CCO [Compound 169] | 6.2 |  | 5.6 | 1000 | > 10000 |  | 143
23 |  |  | CC(C)c1ccc(COc2ccc(-c3c(-c4ccncc4)nn4c3C(=O)N(CCO)CC4)c(F)c2)cc1CCO [Compound 205] | 7.8 |  | 7.5 | 7.94 | > 10000 |  | 151
24 |  |  | CC(C)c1ccc(COc2ccc(-c3c(-c4ccncc4)nn4c3C(=O)N(C)CC4)cn2)cc1 [Compound 211] | 7.3 | > 10000 | 7.3 | 31.6 |  |  | 57
25 |  |  | CC(C)c1ccc(COc2ccc(-c3c(-c4ccncc4)nn4c3C(=O)N(CCS(C)(=O)=O)CC4)cn2)cc1 [Compound 213] | 7.0 | > 10000 | 6.4 | 100 |  |  | 200
26 |  |  | CC(C)c1ccc(C2Oc3ccc(-c4c(-c5ccncc5)nn5c4C(=O)NCC5)cc3NC2=O)cc1 (centres unmarked) [Compound 231] | 6.4 | > 10000 | 5.7 | 794 |  |  | 291
